Measured values taken from ChEMBL document CHEMBL3745672, “Novel compounds reducing IRS-1 serine phosphorylation for treatment of diabetes” (Bioorg Med Chem Lett, 2016).

How the values were obtained:
[1] = molecular target: Angiopoietin-1 receptor (Homo sapiens) (UniProt Q02763); assay: Inhibition of TIE2 (unknown origin) at 1 uM
[2] = molecular target: Mitogen-activated protein kinase 8 (Homo sapiens, UniProt P45983); assay: Inhibition of JNK1 (unknown origin) at 1 uM
[3] = molecular target: Mitogen-activated protein kinase 3 (Homo sapiens) (UniProt P27361); assay: Inhibition of ERK1 (unknown origin) at 1 uM
[4] = molecular target: Death-associated protein kinase 3 (Homo sapiens) (UniProt O43293); assay: Inhibition of DAPK3 (unknown origin) at 1 uM
[5] = molecular target: Platelet-derived growth factor receptor beta (Homo sapiens) (UniProt P09619); assay: Inhibition of PDGFRbeta (unknown origin) at 1 uM
[6] = molecular target: Hepatocyte growth factor receptor (Homo sapiens) (UniProt P08581); assay: Inhibition of cMET (unknown origin) at 1 uM
[7] = molecular target: Serine/threonine-protein kinase B-raf (Homo sapiens) (UniProt P15056); assay: Inhibition of B-RAF (unknown origin) at 1 uM
[8] = molecular target: Fibroblast growth factor receptor 3 (Homo sapiens) (UniProt P22607); assay: Inhibition of FGFR3 (unknown origin) at 1 uM
[9] = molecular target: T1, Aurora kinase A (Homo sapiens) (UniProt O14965); assay: Inhibition of AurA (unknown origin) at 1 uM
T1 sequence (whole entry): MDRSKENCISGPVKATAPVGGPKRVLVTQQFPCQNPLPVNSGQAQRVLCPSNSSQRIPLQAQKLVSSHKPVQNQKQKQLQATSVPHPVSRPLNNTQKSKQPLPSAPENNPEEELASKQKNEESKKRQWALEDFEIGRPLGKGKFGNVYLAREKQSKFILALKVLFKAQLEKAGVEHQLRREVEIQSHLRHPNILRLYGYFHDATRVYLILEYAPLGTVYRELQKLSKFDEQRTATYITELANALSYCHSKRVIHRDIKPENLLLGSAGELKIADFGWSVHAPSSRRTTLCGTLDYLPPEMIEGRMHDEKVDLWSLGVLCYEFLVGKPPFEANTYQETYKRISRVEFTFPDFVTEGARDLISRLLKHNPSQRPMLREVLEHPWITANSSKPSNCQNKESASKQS

[10] = molecular target: Receptor tyrosine-protein kinase erbB-2 (Homo sapiens) (UniProt P04626); assay: Inhibition of ERBB2 (unknown origin) at 1 uM
[11] = molecular target: T2, Tyrosine-protein kinase JAK3 (Homo sapiens) (UniProt P52333); assay: Inhibition of JAK3 (unknown origin) at 1 uM
T2 sequence (whole entry): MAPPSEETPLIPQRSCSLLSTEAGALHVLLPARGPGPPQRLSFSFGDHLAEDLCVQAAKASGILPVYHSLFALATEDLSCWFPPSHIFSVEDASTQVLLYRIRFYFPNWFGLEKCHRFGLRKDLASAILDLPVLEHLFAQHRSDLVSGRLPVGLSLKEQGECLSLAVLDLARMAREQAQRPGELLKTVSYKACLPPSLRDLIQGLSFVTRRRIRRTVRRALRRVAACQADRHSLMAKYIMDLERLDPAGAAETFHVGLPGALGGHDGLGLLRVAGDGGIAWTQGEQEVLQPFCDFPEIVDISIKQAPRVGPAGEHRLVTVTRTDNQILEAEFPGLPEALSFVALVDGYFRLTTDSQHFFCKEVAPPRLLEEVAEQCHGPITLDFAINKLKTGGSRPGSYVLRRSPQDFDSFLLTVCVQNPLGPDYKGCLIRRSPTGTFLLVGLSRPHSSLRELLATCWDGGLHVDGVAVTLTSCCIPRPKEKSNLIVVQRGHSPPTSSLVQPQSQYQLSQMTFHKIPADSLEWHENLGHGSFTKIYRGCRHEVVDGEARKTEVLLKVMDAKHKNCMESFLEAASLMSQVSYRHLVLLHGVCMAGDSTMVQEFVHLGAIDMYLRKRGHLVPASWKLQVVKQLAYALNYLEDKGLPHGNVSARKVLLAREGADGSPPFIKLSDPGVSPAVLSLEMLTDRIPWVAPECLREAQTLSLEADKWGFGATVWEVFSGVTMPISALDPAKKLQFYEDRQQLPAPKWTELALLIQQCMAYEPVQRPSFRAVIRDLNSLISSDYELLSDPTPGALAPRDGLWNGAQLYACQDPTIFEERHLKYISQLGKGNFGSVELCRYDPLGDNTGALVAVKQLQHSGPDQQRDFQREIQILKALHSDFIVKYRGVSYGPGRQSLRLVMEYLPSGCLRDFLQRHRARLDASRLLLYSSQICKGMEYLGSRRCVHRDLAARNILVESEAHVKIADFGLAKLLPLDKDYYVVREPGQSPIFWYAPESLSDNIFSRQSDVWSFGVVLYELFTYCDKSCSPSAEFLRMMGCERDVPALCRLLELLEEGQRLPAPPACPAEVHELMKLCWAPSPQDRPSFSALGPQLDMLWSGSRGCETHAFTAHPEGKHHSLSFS

[12] = molecular target: RAC-alpha serine/threonine-protein kinase (Homo sapiens) (UniProt P31749); assay: Inhibition of AKT1 (unknown origin) at 1 uM
RAC-alpha serine/threonine-protein kinase (Homo sapiens), sequence (P31749 whole entry): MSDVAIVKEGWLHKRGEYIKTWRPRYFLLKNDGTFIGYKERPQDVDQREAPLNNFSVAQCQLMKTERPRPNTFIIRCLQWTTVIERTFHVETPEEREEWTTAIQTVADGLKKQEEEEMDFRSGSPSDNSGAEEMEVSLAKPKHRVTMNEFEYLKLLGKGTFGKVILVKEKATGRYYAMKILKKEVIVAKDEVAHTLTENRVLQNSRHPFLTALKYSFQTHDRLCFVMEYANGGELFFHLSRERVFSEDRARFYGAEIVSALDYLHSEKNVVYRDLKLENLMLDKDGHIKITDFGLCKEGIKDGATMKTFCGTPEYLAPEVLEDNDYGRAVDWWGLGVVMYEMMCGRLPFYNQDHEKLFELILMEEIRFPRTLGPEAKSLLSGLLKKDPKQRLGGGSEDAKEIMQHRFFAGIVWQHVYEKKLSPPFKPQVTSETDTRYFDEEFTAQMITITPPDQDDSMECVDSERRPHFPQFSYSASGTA

Hepatocyte growth factor receptor (Homo sapiens), sequence (P08581 whole entry): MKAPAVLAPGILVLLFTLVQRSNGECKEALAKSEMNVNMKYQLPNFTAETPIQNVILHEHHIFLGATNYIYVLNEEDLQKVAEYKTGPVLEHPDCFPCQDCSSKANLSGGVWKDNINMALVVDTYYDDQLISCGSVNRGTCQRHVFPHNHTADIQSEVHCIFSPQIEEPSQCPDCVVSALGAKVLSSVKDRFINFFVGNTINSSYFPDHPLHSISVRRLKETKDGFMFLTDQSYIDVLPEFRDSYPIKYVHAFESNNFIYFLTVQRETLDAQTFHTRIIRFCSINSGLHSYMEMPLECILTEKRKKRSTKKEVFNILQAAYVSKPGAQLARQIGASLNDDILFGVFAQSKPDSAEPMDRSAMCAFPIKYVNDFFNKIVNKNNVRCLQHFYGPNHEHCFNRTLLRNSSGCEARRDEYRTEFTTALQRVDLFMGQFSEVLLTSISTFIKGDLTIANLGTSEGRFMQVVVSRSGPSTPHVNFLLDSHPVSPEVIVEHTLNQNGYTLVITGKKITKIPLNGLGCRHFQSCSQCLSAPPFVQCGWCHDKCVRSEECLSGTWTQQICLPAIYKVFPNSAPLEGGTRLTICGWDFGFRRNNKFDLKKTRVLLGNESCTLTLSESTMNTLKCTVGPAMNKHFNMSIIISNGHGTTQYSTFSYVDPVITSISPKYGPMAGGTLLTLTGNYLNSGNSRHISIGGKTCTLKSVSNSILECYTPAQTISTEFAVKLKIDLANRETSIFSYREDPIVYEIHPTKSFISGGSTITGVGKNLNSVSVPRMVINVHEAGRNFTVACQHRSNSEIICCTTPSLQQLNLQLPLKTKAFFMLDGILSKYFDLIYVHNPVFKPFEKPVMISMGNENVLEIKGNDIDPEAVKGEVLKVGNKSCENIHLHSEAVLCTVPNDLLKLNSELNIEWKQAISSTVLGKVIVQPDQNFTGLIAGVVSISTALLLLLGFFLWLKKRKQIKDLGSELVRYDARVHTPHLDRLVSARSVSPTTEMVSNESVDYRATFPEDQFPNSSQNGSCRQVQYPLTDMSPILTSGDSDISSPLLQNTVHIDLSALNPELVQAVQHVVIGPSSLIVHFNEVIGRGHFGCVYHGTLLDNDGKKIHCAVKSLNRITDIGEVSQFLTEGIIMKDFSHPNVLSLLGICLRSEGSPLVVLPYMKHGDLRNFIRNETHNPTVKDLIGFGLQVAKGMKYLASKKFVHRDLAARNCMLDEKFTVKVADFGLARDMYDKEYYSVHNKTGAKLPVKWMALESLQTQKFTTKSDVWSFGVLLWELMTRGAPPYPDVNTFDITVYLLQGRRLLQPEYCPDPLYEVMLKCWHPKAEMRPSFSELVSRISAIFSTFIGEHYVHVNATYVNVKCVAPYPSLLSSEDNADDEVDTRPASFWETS
Serine/threonine-protein kinase B-raf (Homo sapiens), sequence (P15056 whole entry): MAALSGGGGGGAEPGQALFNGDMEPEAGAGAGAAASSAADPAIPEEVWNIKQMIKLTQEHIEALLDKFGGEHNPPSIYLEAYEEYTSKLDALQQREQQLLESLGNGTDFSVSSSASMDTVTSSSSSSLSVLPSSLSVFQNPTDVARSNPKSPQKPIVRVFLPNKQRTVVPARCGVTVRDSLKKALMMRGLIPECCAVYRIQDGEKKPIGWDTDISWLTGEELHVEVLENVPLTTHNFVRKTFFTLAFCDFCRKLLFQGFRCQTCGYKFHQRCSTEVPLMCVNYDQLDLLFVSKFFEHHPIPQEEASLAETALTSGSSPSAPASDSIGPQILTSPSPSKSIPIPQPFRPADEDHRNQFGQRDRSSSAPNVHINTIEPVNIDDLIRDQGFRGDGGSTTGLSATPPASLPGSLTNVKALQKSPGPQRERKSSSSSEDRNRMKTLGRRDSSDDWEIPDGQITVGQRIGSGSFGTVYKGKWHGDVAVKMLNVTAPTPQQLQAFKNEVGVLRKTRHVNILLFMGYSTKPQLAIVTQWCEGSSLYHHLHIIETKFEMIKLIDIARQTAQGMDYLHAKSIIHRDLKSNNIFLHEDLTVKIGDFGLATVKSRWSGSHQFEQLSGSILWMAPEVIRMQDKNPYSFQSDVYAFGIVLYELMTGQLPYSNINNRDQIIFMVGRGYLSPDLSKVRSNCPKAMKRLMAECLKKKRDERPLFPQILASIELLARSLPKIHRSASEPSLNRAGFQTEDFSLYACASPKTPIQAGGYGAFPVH
Platelet-derived growth factor receptor beta (Homo sapiens), sequence (P09619 whole entry): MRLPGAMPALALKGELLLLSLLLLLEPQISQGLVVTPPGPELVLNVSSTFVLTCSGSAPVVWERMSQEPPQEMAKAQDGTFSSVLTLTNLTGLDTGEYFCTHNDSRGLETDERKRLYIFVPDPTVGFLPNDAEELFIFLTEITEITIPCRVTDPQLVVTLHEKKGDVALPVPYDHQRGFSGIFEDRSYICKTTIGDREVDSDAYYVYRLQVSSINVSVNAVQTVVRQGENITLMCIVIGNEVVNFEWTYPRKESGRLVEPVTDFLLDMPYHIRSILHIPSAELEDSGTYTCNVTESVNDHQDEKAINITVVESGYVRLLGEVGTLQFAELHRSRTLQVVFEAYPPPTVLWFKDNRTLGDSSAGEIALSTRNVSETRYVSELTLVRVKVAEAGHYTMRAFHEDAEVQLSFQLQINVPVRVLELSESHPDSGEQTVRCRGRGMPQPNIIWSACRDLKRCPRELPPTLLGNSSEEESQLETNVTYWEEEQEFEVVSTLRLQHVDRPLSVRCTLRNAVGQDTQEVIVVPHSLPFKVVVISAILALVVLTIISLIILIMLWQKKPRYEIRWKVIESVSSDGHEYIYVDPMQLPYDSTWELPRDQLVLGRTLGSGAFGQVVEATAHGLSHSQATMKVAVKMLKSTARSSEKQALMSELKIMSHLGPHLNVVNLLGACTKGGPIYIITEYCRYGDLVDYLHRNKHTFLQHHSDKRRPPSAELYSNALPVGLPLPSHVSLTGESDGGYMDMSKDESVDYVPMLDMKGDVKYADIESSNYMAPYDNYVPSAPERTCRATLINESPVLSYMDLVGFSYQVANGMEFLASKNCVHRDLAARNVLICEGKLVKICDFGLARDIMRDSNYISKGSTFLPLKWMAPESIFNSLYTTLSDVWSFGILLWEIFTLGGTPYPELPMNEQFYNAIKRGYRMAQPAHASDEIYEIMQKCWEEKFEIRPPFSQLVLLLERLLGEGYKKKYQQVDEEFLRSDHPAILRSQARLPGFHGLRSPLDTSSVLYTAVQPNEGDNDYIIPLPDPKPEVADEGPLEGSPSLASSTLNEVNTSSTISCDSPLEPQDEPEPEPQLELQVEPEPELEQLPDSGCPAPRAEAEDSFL
Mitogen-activated protein kinase 3 (Homo sapiens), sequence (P27361 whole entry): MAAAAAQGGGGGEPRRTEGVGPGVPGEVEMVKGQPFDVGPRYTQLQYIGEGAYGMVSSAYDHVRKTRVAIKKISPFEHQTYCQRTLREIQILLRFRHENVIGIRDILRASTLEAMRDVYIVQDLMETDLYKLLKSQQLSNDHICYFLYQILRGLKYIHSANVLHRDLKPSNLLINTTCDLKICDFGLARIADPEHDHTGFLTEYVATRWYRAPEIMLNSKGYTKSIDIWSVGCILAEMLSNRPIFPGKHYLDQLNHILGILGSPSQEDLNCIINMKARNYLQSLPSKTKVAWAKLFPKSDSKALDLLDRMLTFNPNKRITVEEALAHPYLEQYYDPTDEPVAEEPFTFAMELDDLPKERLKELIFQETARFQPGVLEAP
Death-associated protein kinase 3 (Homo sapiens), sequence (O43293 whole entry, looked up): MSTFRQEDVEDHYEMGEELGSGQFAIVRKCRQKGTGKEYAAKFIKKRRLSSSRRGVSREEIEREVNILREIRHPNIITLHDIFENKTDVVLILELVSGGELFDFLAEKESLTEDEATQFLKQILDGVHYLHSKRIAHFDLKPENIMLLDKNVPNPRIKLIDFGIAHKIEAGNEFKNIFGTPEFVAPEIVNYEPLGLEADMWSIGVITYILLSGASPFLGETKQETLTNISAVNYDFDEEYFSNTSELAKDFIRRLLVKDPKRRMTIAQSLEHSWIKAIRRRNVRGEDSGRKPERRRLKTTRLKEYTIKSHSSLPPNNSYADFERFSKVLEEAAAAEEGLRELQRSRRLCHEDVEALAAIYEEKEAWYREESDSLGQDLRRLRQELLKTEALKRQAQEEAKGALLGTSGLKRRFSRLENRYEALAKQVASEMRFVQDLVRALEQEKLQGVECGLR
Mitogen-activated protein kinase 8, sequence (P45983 whole entry): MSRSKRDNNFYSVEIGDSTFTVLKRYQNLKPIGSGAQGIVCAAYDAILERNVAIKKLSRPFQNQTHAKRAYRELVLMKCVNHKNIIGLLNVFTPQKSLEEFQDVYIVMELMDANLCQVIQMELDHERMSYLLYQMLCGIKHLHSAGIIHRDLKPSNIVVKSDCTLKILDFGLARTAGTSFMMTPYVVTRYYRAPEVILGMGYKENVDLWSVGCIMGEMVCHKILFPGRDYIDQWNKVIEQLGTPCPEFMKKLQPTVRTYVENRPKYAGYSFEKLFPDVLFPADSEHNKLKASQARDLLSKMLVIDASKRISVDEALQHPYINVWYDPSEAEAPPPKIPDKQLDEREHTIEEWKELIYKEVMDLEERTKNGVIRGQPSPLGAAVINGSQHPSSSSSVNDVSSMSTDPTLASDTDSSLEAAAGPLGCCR

## Cn1c(=O)c(Oc2ccc(F)cc2F)cc2cnc(NC3CCN(S(N)(=O)=O)CC3)nc21
[1]
  inhibition: 10%
[2]
  inhibition: 71%
[3]
  inhibition: 16%
[4]
  inhibition: 0%
[5]
  inhibition: 13%
[6]
  inhibition: 22%
[7]
  inhibition: 18%
[8]
  inhibition: 5%
[9]
  inhibition: 1%
[10]
  inhibition: 4%
[11]
  inhibition: 10%
[12]
  inhibition: 8%
